The values that follow come from publication PMC9888480, “Carboranyl-1,8-naphthalimide intercalators induce lysosomal membrane permeabilization and ferroptosis in cancer cell lines” (Journal of Enzyme Inhibition and Medicinal Chemistry, 2023).

Experiment [1] relates to HepG2 cells. The experiment can be described thus: Oxidative stress (ROS) measurement by flow cytometry (H2DCFDA). It counts as cell-based, human. The settings on record: HepG2, 24 h, total IC50 concentration. Here is the method: The HepG2 cells were seeded (2 × 10^5 cells/well) onto 12-well plates and cultured in supplemented EMEM at 37 °C under 5% CO2 saturation until 70–80% confluency was reached. […] The intracellular ROS level was analysed by staining with H2DCFDA (ex/em: ∼492–495/517–527 nm) in accordance with the manufacturer’s protocol (Thermo Fisher Scientific, Waltham, MA, USA), wherein ROS trigger the fluorescence. The cells were separated by trypsin (Corning®) and washed twice with DPBS (1 ml, Capricorn). The pelleted cells were suspended in 0.5 ml of DPBS containing H2DCFDA at the final concentration of 0.5 µM. In order to eliminate dead cells from analysis, propidium iodide (10 µg/ml) was also added to the staining mix. The cells were then incubated at 37 °C for 30 min in the dark and then analysed with excitation at 488 nm using a FACSCalibur flow cytometer (Becton Dickinson, Franklin Lakes, NJ, USA), and the data were analysed using the FlowJo software (Becton Dickinson).

Experiment [2] has as its system ct-DNA. The experiment can be described thus: UV–vis spectra titration with ct-DNA (binding constant Kb). On the set-up: species or system calf. The settings on record: for bathochromic effect: UV–vis, addition of 1.25–15 µM ct-DNA to 10 µM compound; for Kb compared to that of mitonafide: mitonafide Kb 2.54 × 10^5. Here is the method: The measurements were performed by adding aliquots of DMSO stock solution of the tested compounds to the buffer solution (pH 7.4, 20 mM, 50 mM NaCl, Tris–HCl buffer, DMSO content of the final solutions = 0.54–0.65%) to the final concentration 10 µM. The tested compounds were incubated for 5 min, with increasing concentrations ranging from 0 to 15 µM of ct-DNA at 37 °C. Then, the UV–vis absorption spectra between 300 and 500 nm were recorded using a GBC Cintra10 UV–VIS spectrometer equipped with a GBC Thermocell Peltier Power Supply with the use of a 1-cm-path-length cell. The binding constant was calculated according to the following equation[70]: A0/A−A0= εG/εH−G−εG+ εG/εH−G−εG × 1/Kb[DNA] where Kb is the binding constant; A0 and a are absorbances of the free tested compound and the apparent one; εG and εH–G are their coefficient, respectively; [DNA] is the concentration of DNA in base pairs. The slope to intercept ratio of the plot between A0/A − A0 and 1/[DNA] yielded the binding constant.

For experiment [3], the system named is HepG2 cells. Put plainly: Apoptosis/necrosis assay by flow cytometry (YO-PRO-1/PI). The format is cell-based, human. The note with it: HepG2, 24 h, YO-PRO1/PI; for early apoptotic cells: half and total IC50 concentrations tested. The method, then: Apoptosis/necrosis assay was carried out by double staining of cells with YO-PRO-1 (Thermo Fisher Scientific) and propidium iodide (PI, Sigma-Aldrich) fluorescent dyes. Briefly, HepG2 cells (2 × 10^5) were seeded onto 6-well plates. […] Subsequently, the cells were detached with trypsin (Thermo Fisher Scientific), washed twice with DPBS (1 ml) (Thermo Fisher Scientific), and stained with YO-PRO-1 (0.5 µM) and PI (10 µg/ml) according to the manufacturer’s protocol for 30 min at 37 °C in the dark. Immediately after staining, the cells were analysed with 488 nm excitation using a FACSCalibur flow cytometer (Becton Dickinson), and data were analysed using the FlowJo software (Becton Dickinson).
For orientation: In flow cytometry, cells or beads pass a laser one at a time.

Another experiment relates to MRC-5. Put plainly: In vitro cytotoxic activity, MTT assay. It counts as cell-based, human. The settings on record: concentration required to inhibit cell growth by 50%. The text has this: (§1) The in vitro cytotoxic activity of the obtained carborane-1,8-naphthalimide conjugates was investigated by examining their cytotoxic effects using the MTT (3–(4,5-dimethylthiazol-2-yl)-2,5-diphenyltetrazolium bromide) dye assay[38]^,[39] against the human cancer cell line HepG2 established from hepatocellular carcinoma (for compounds 12–19 and 30–37) and against human lung fibroblasts (MRC-5) (for compounds 34–37). The IC50 values—the drug concentration (µM) required to inhibit cell growth by 50%—determined for the synthesised compounds are summarised in Table 2.
(§2) The cytotoxic properties of the synthesised compounds were evaluated using the human hepatocellular carcinoma cell line (HepG2) and human lung fibroblasts (MRC-5). The HepG2 and MRC-5 cell lines were purchased from American Type Culture Collection (ATCC, Manassas, VA, USA). The HepG2 cells were propagated in Eagle’s minimal essential medium (EMEM, ATCC, Manassas, VA, USA), supplemented with 10% inactivated foetal bovine serum (FBS, Life Technologies, Warsaw, Poland) and 100 units/ml penicillin G with […] streptomycin (Life Technologies, Warsaw, Poland). The cells were incubated at 37 °C in a humidified atmosphere containing 5% CO2. Upon reaching 80–90% confluency, the cells were harvested with 0.25% trypsin in 1 mM EDTA (Life Technologies, Warsaw, Poland) and transferred to 96-well microplates at 2 × 10^4 cells/well. After overnight incubation of cells at 37 °C in a humidified atmosphere containing 5% CO2, the culture medium was removed and replaced with a freshly prepared solution of compounds in the culture medium or medium itself as the control group. The stock solutions of each compound were prepared in DMSO at a concentration of 100 mM and were diluted with the growth medium supplemented with 10% FBS to ensure drug dissolution to obtain concentrations ranging from 0.1 to 1000 µM. Cytotoxicity was evaluated using the MTT assay. After incubation with the compounds, the cells were treated with MTT dye solution (5 mg/ml) for 2 h and lysed with a solvent solution containing DMF (45 ml), sodium dodecylsulfate (13.5 g), and distilled water (55 ml). After overnight incubation at 37 °C, optical density at 550 nm, with a reference wavelength of 670 nm, was measured in an ELISA reader (VarioskanLux, Thermo Scientific, Waltham, MA, USA). All determinations were carried out in triplicate. Results were calculated as the percentage of control group viability. The IC50 values of the compounds were calculated in an Excel add-in ED50V10.
(In general: Tetrazolium dyes change colour on reduction, which living cells bring about.)

A further experiment relates to HepG2. The experiment can be described thus: In vitro cytotoxic activity, MTT assay. The settings on record: concentration required to inhibit cell growth by 50%. It counts as cell-based, human.
Source text: as §1, §2

Experiment [4] has as its system ct-DNA. Put plainly: Melting temperature (Tm) measurements of ct-DNA. It counts as binding, calf. The note with it: r = [compound]/[ct-DNA] = 0.3, cacodylate buffer pH 7.0; Tm of free ct-DNA 74 °C; error ±0.5 °C. Here is the method: The measurements were carried out by adding aliquots of DMSO stock solution of the tested compounds to the buffer solution (pH 7.0, 20 mM, cacodylate buffer, DMSO content of the final solution = 0.33–0.39%). Tm curves were collected at r = 0.3 (r = [compound]/[ct-DNA]) to assure the dominant binding mode. Thermal melting curves were plotted considering the absorption change at 260 nm as a function of temperature using a GBC Cintra10 UV–VIS spectrometer (Dandenong, Australia) equipped with a GBC Thermocell Peltier Power Supply (Dandenong, Australia) with the use of a 1-cm-path-length cell. The absorbance of the samples was monitored at 260 nm from 35 to 95 °C with a heating rate of 1 °C/min. Tm values are the midpoints or the transition curves determined from the maximum of the first derivative. ΔTm values were calculated by subtracting the Tm of the free nucleic acid from the Tm of the sample. All ΔTm values reported in the study were measured in triplicate. The error in ΔTm was ±0.5 °C.

By IC50 is commonly meant the midpoint of a concentration-inhibition curve. On to “4-[(6-[(1,2-Dicarba-closo-dodecaborane-1-yl)ethylamino]hexyl)amino]-N-[2-(dimethylamino)ethyl]-3-nitro-1,8-naphthalimide [Compound 34]”, for which the “ROS generation (green fluorescence intensity)” value (“ROS generation” below) in the experiment with HepG2 cells [1] is “increased approximately twofold”. Further, the bathochromic effect in the experiment on ct-DNA [2] is 9 nm. Further, the early apoptotic cells in the experiment with HepG2 cells [3] is given as 9.12%. For the same substance, the IC50 amounted to 2130 ± 230 nM in the experiment on MRC-5 and 4780 ± 790 nM with HepG2. Moreover, the “ΔTm ct-DNA” value with ct-DNA [4] worked out at 11.67 °C.

As for “4-[(6-[(1,7-Dicarba-closo-dodecaborane-1-yl)ethylamino]hexyl)amino]-3-nitro-N-[2-(N-pyrrolidinyl)ethyl]-1,8-naphthalimide [Compound 37]”, in the experiment with HepG2 cells [1], the “ROS generation” value was “increased approximately twofold”. Moreover, the bathochromic effect with ct-DNA [2] is recorded as 8 nm. Also, the early apoptotic cells with HepG2 cells [3] came out at 12.56%. The IC50 worked out at 2260 ± 50 nM with MRC-5 and 4230 ± 820 nM in the experiment on HepG2. In the experiment with ct-DNA [4], the “ΔTm ct-DNA” value amounted to 13.00 °C.

Turning to “4-[(6-[(1,7-Dicarba-closo-dodecaborane-1-yl)ethylamino]hexyl)amino]-N-[2-(dimethylamino)ethyl]-3-nitro-1,8-naphthalimide [Compound 35]”, in the experiment with HepG2 cells [1], the “ROS generation” value is recorded as “moderate effect”. In addition, in the experiment on ct-DNA [2], the bathochromic effect came out at 10 nm and the “Kb compared to that of mitonafide” value was “approximately 1.5 fold”. In the experiment on HepG2 cells [3], the “necrosis (PI positive cells)” value came to 55.75% and the early apoptotic cells stood at 6.7%. Moreover, the IC50 with MRC-5 worked out at 2140 ± 360 nM. In the experiment with HepG2, this substance had an IC50 of 4320 ± 710 nM. The “ΔTm ct-DNA” value in the experiment with ct-DNA [4] was 13.00 °C.

On to “4-[(6-[(1,2-Dicarba-closo-dodecaborane-1-yl)ethylamino]hexyl)amino]-3-nitro-N-[2-(N-pyrrolidinyl)ethyl]-1,8-naphthalimide [Compound 36]”, for which the “ROS generation” value with HepG2 cells [1] is reported as “weakest ROS inductor”. Besides, in the experiment with ct-DNA [2], the bathochromic effect stood at 7 nm and the “Kb compared to that of mitonafide” value was “similar”. The same substance registered an early apoptotic cells in the experiment on HepG2 cells [3] of 12.55%. In the experiment on MRC-5, this substance had an IC50 of 2330 ± 20 nM. In the experiment on HepG2, this substance showed an IC50 of 3630 ± 300 nM. Moreover, the “ΔTm ct-DNA” value in the experiment on ct-DNA [4] worked out at 10.00 °C.
